Results from BindingDB's records for patent US10266537 (St. Chuan University, 2019).

Target: Tyrosine-protein kinase ABL1 [T315I] (Homo sapiens, UniProt P00519, T315I)
Assay: Kinase Inhibition Assays

For `C=CC(=O)N1CCC(n2nc(C#Cc3cc(C(=O)Nc4ccc(CN5CCN(C)CC5)c(C(F)(F)F)c4)ccc3C)c3c(N)ncnc32)CC1` [US10266537, Compound 121], the IC50 was 0.133 µM.
